≈ marks a conversion by molar mass, not a printed value. Where two headings read alike, the source gives them in different places. Positions of bridges follow the written chain, without caps; N, C: chain ends. Non-standard residues stand in square brackets, D forms with d. Residues, ends and D or L forms follow the SMILES beside them. R8 = C=CCCCCCC[C@@](C)(N)C(=O)O; S5 = C=CCCC[C@](C)(N)C(=O)O
Experiments:
[1] = Circular dichroism (CD) helicity; type: physicochemical
Description: A total of 5 µL of the 10 mM stock peptide was mixed with 45 µL of 100% methanol, and dried for 2 h in the SpeedVac concentrator (Thermo Scientific). The dried peptide was reconstituted in a buffer (1 mM Hepes pH 7.4 and 5% methanol) to a concentration of 1 mM. The peptide sample was placed in a quartz cuvette with a path length of 0.2 cm. The peptide concentration was determined by the absorbance of the peptide at […]. The CD spectrum was recorded from 300 to 190 nm using the Chirascan-plus qCD machine (Applied Photophysics, Surrey, UK), at 25 °C. All experiments were done in duplicates. The CD spectrum was converted to mean residue ellipticity before deconvolution and estimation of the secondary structure components of the peptide using the CDNN software (distributed by Applied Photophysics). Measurements were taken at least twice and were reported as arithmetic means.

[2] = system: cells transiently transfected with the NanoLuc-HaloTag vector; test: Nanoclick permeability assay; conditions: 4Hr
Outline: (§1)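 Azido-peptide permeability was read as loss of NanoBRET signal (donor 450 nm, acceptor 610 nm) after adding NanoBret618-azide at 10 μM final.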

[3] = Nanoclick permeability assay
Outline: as §1

[4] = Solubility assay (kinetic solubility, PBS pH 7); type: physicochemical; conditions: for solubility kinetic: pH 7, aqueous buffer, kinetic from dmso stock, read-out: Solubility
Outline: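 Std: 10 mM stock → 100 µM in ACN/MeOH/DMSO (10:80:10). Sol. [µM] = (sample peak area / std peak area) × std conc.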

[5] = system: Jump-In T-REx CHO-K1 BLA cells; test: cells; type: cell-based
[6] = Experimental LogD (partition coefficient); conditions: for logD: not stated, Partition Coeff LogD
[7] = system: p53 responsive β-lactamase reporter in HCT116 cells; test: cells; type: cell-based
Outline: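 Read-out used the ToxBLAzer Dual Screen for β-lactamase driven by a stably integrated p53-responsive reporter. Assay: 8000 HCT116 cells per well at 0.5% final DMSO. Reported numbers are geometric means over a minimum of three biological replicates.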

[8] = Lactate dehydrogenase (LDH) release assay; type: cell-based
Outline: (§2)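 Read-out was lactate dehydrogenase release, reflecting loss of membrane integrity, in reporter-engineered HCT116 cells (p53-responsive β-lactamase) seeded at 8000 cells per well. Final DMSO was 0.5%, and reported values are geometric means from three or more biological repeats.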

[9] = system: HCT116 cells; test: Lactate dehydrogenase (LDH) release assay; type: cell-based
Outline: as §2

[10] = target: T1, human Mdm2 1–125 (Homo sapiens, UniProt Q00987); test: Mdm2 binding by competitive fluorescence anisotropy assay (FP binding); conditions: read-out: FP binding assay KD
T1 construct: GST (N); His6 (internal); TEV cleavage site (ENLYFQG) (internal); made in house; host or cells: BL21 (DE3) Rosetta T1R Escherichia coli

[11] = physchem
[12] = system: CellSensor p53RE-bla HCT-116 Cell Line; conditions: read-out: Cell Proliferation assay EC50; p53 WT, HCT116
Outline: (§3)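 Compound dilution series (10 points, 3-fold, 10 mM top stock in DMSO) tested on overnight-plated Ca Ski cells in RPMI1640/10% FBS and on blasticidin-selected p53RE-bla HCT-116 cells in McCoy's 5A; read-out was CellTiter-Glo 2.0 luminescence after room-temperature equilibration.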

[13] = system: Ca Ski cell line; conditions: read-out: Cell Proliferation assay EC50; p53 Mut, Ca-Ski
Outline: as §3

[14] = 0% FBS 4Hr, read-out: TETCHO: Counterscreen EC50
[15] = 0% FBS 4Hr, read-out: p53 reporter assay: EC50

T1 sequence (Q00987 with tags, fused parts or gaps): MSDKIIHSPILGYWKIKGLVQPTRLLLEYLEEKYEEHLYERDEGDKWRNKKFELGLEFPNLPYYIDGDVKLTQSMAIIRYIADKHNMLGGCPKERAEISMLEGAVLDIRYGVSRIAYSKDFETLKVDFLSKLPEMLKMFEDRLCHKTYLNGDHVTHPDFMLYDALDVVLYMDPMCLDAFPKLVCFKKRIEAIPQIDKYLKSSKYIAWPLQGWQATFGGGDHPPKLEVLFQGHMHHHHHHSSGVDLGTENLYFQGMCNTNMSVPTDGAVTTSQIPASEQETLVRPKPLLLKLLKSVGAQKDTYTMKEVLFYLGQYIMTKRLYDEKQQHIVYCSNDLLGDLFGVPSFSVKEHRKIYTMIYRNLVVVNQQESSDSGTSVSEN

## CC(=O)N[C@@H](CC(C)C)C(=O)N[C@H](C(=O)N[C@@H](Cc1ccccc1)C(=O)N[C@]1(C)CCCCCCC=CCCC[C@@](C)(C(=O)N[C@@H](C)C(=O)N[C@@H](C)C(=O)N[C@@H](C)C(=O)N[C@@H](C)C(=O)N[C@@H](C)C(=O)N[C@H](C)C(N)=O)NC(=O)[C@H](CC(C)C)NC(=O)[C@H](CCC(N)=O)NC(=O)[C@H](C)NC(=O)[C@H](Cc2c[nH]c3ccccc23)NC(=O)[C@H](Cc2ccc(O)cc2)NC(=O)[C@H](CCC(=O)O)NC1=O)[C@@H](C)O [ALRN-6924, Ac-LTF(R8)EYWAQL(S5)AAAAA(dA)-NH2, reference compound] (Ac-LTF[R8]EYWAQL[S5]AAAAA[dA]-NH2; staple 4-11)
[1]
  CD % Helicity: 51.25%
[1]; circular dichroism
  Aqueous solution helicity: 51.25%
[2]
  Nanoclick permeability assay % Effect: 33.65%
[3]
  cell entry EC50: > 10 µM
[4]
  Solubility: P.B.
[4]; pH 7, PBS
  Solubility: Poorly Behaved
[5]; 0% FBS 4Hr
  TETCHO: Counterscreen % Effect: 4.454%
[5]; [14]
  EC50: > 50.4 µM
[5]; 10% FBS 16Hr
  TETCHO: Counterscreen % Effect: -11.62%
[5]; 10% FBS 16Hr, read-out: TETCHO: Counterscreen EC50
  EC50: > 50.4 µM
[6]
  Partition Coeff LogD: Poorly Behaved
[7]; 0% FBS 4Hr
  p53 reporter assay % Effect: 95.6%
[7]; 0% FBS 4Hr, read-out: p53 reporter assay EC50
  EC50: 0.141 µM
[7]; 10% FBS 16Hr
  p53 reporter assay % Effect: 77.82%
[7]; 10% FBS 16Hr, read-out: p53 reporter assay EC50
  EC50: 0.323 µM
[7]; read-out: Cell EC50 (4 hr, 0% FBS), p53 reporter assay, 4 hr, 0% FBS
  EC50: 0.14 µM
[7]; read-out: Cell EC50 (16 hr, 10% FBS), p53 reporter assay, 16 hr, 10% FBS
  EC50: 0.32 µM
[8]; 0% FBS 4Hr, read-out: LDH: Cytotoxicity assay EC50
  EC50: > 50.7 µM
[8]; 10% FBS 16Hr, read-out: LDH: Cytotoxicity assay EC50
  EC50: > 50.7 µM
[9]; 0% FBS 4Hr
  LDH: Cytotoxicity assay % Effect: 0.8526%
[9]; 10% FBS 16Hr
  LDH: Cytotoxicity assay % Effect: 8.856%

## CC(=O)N[C@H](C(=O)N[C@@H](CO)C(=O)NC(C)(Cc1ccccc1)C(=O)N[C@]1(C)CCCCCCC=CCCC[C@@](C)(C(N)=O)NC(=O)[C@H](CC(C)C)NC(=O)[C@H](CC(C)C)NC(=O)[C@H](C)NC(=O)[C@H](Cc2c[nH]c3ccccc23)NC(=O)[C@H](Cc2ccc(O)cc2)NC(=O)[C@H](CCC(=O)O)NC1=O)[C@@H](C)O (some centres unmarked) [MP-159]
[10]
  Kd: 0.52 µM
[1]
  CD % Helicity: 40.4%
[11]
  EPSA: 210 A^2
[4]; pH 7, PBS
  solubility kinetic: 85.5 µM (≈ 126 µg/mL)
[5]; 0% FBS 4Hr
  TETCHO: Counterscreen % Effect: 165.5%
[5]; [14]
  EC50: 30.1 µM
[5]; 0% FBS 16Hr
  TETCHO: Counterscreen % Effect: 55.93%
[6]
  logD: 2.75
[7]; [15]
  EC50: 37.4 µM
[8]; LDH: Cytotoxicity assay: EC50
  EC50: 21.6 µM
[9]
  LDH: Cytotoxicity assay: % Effect: 47.15%

## CC(=O)N[C@@H](CCCCN=[N+]=[N-])C(=O)NCCC(=O)N[C@@H](CC(C)C)C(=O)N[C@H](C(=O)N[C@@H](Cc1ccccc1)C(=O)N[C@]1(C)CCCCCCC=CCCC[C@@](C)(C(=O)N[C@@H](CO)C(=O)N[C@@H](C)C(=O)N[C@@H](C)C(N)=O)NC(=O)[C@H](CC2CCC2)NC(=O)[C@H](CCC(N)=O)NC(=O)[C@H](Cc2c[nH]cn2)NC(=O)[C@H](Cc2c[nH]c3ccccc23)NC(=O)[C@H](Cc2ccc(O)cc2)NC(=O)[C@H](CCC(=O)O)NC1=O)[C@@H](C)O [MP-496, AZIDE-ATSP-7041 (A8H)]
[12]
  EC50: 1.54 µM
[13]
  EC50: > 49.8 µM
[1]
  CD % Helicity: 32.75%
[11]
  EPSA: 214 A^2
[4]; pH 7, PBS
  solubility kinetic: 20 µM (≈ 40.7 µg/mL)
[5]; 0% FBS 4Hr
  TETCHO: Counterscreen % Effect: 34.53%
[5]; [14]
  EC50: 2.83 µM
[5]; 4 hours, 0% serum, efficacy at 50 μM relative to tetracycline control
  TETCHO Counterscreen % Effect: 34.53%
[5]; 4 hours, 0% serum, read-out: TETCHO Counterscreen EC50
  EC50: 2.8 µM
[5]; Supplementary Table 1, 0% serum, 4 hours
  off-target effects (LDH release and/or counterscreen activity): none
[6]
  logD: 2.63
[7]; [15]
  EC50: 1.61 µM
[7]; 0% FBS 16Hr, read-out: p53 reporter assay: EC50
  EC50: 1.67 µM
[8]; 0% FBS 4Hr, read-out: LDH: Cytotoxicity assay: EC50
  EC50: > 50.6 µM
[9]; 0% FBS 4Hr
  LDH: Cytotoxicity assay: % Effect: 33.4%

From paper PMC10786919, “Design-rules for stapled peptides with in vivo activity and their application to Mdm2/X antagonists” (Nature Communications, 2024)
